In patent publication US20250195498A1, “INHIBITOR OF CELLULAR PURINE NUCLEOTIDE SALVAGE PATHWAY ENZYME FOR USE IN THE TREATMENT AND/OR PREVENTION OF HELICOBACTER PYLORI INFECTION AND/OR DISEASE ASSOCIATED WITH SUCH INFECTION AND PHARMACEUTICAL COMPOSITION COMPRISING THE SAME” (UNIWERSYTET WARSZAWSKI, priority 2022, published 2025):
Converted amounts (≈) assume the structure as drawn. “And” between values parts separate entries of the source, which are not always exact repeats. Equal entries are not always repeated. Where two headings read alike, the source gives them in different places.

Columns and labels:
Type in all cases: cell-based, Helicobacter pylori
[1] = test system: H. pylori strain N6; experiment: Growth curve method / MIC, strain N6; conditions: Helicobacter pylori
Method: (§1) The representative PNP inhibitor from H. pylori included in this study was immucillin A. The experiment was conducted using the growth curve method (two-fold serial dilutions in liquid medium). The tested H. pylori strains were cultured in Petri dishes with BHI solid medium supplemented with 10% FBS and 1% H. pylori Selective Supplement antibiotic kit, in anaerostats under microaerophilic conditions (5% 02, 10% CO2, 85% N2) at 37° C. for 3 days. Liquid culture of H. pylori was conducted overnight with shaking at 37° C. under microaerophilic conditions in BHI medium supplemented with 10% FBS and 1% H. pylori Selective Supplement antibiotic kit. Subsequently, for the essential experiment of determining the minimum inhibitory concentration (MIC), double strengthened liquid BHI medium was prepared, that is, supplemented with 20% FBS and a 2% set of H. pylori Selective Supplement antibiotics.
(§2) Bacterial proliferation inhibition experiments were carried out in 24-deep-well 2 ml flat-bottomed plates at a solution volume per well of 0.5 ml. In a single well, double strengthened (relative to the concentration planned for testing) solutions of the test inhibitor and double strengthened liquid BHI medium inoculated with H. pylori (10^4-10^5 CFU/ml in the final volume in the well, corresponding to the optical density of the culture OD600=0.05) were mixed together in a 1:1 ratio.
(§3) Kanamycin at a concentration of 25 μg/ml (Irie et al., 1997) was used as a positive control, while Mili-Q deionized water and BHI medium not inoculated with bacteria were used as negative controls. Plates were shaken at 37° C., under microaerophilic conditions. […] After 24 hours, the OD600 of samples containing the negative control, i.e. with Mili-Q deionized water, was about 1.2-1.4, corresponding to a bacterial concentration of about […].
(§4) In addition, the method proposed by Knezevic et al. (2018) was used to check whether the observed OD600 was from live bacterial cells. For this purpose, an equal volume of Christensen's double strength urea broth (that is, containing twice the concentration of all components) was added to the wells after incubation, and the plates were additionally incubated for 4 hours in an oxygen atmosphere at 37° C. During incubation, in wells with urease produced by live bacteria, urea is converted to ammonia and carbon dioxide, changing the pH of the solution and thus the colour of the phenol red indicator contained in the medium (from orange to purple).
(§5) All experiments were performed in triplicate.
(§6) Inhibition by PLP and its metabolic precursors of the growth of H. pylori strains: 26695, N6 and P12 in culture was investigated using the growth curve method as described in Example 3. From these experiments, the minimum inhibitory concentration was determined as the lowest concentration of a compound that inhibits the visible growth of the bacteria, compared to growth in control samples without the tested compounds. All experiments were carried out in triplicate.

[2] = test system: H. pylori strain M26 (MTZ + CLR resistant); experiment: Growth curve method / MIC, resistant strain M26; conditions: Helicobacter pylori, strain M26, MTZ + CLR resistant
Method: as §1, §2, §3, §4, §5
(§7) The antibacterial activity of two compounds, mefloquine (in the form of hydrochloride) and quinine, described in the literature as potent in vitro inhibitors of the PNP enzyme from Plasmodium falciparum (Dziekan et al., 2019), was tested. Using a two-fold serial dilution method in liquid medium (as described in Example 3), the MIC values for mefloquine and quinine were determined against clinical H. pylori strains resistant to MTZ, CLR and MTZ+CLR (M26, M91, M92 and M93), as well as the reference H. pylori strain 26695. Four clinical H. pylori strains isolated from adults, from primary infections (the subjects had never previously been treated against H. pylori infection) were tested. These strains come from the collection of the Department of Microbiology of the Medical University of Wroclaw and were obtained due to collaboration with Prof. Grażyna Gościniak, MD, PhD. The tested compounds belong to organic substances and are soluble in DMSO. The maximum tested concentration of quinine in H. pylori culture was 0.56 mM, and that of mefloquine was 2.25 mM. […] On each occasion, the effect of DMSO alone on the growth of the H. pylori strains tested was also checked. […] Kanamycin was used as a positive control and Mili-Q deionised water as a negative control. All experiments were carried out in triplicate. […]

[3] = test system: H. pylori strain M92 (CLR resistant); experiment: Growth curve method / MIC, resistant strain M92; conditions: Helicobacter pylori, strain M92, CLR resistant
Method: as §1, §2, §3, §4, §5, §7

[4] = test system: H. pylori strain P12; experiment: Growth curve method / MIC, strain P12; conditions: Helicobacter pylori
Method: as §1, §2, §3, §4, §5, §6

[5] = test system: H. pylori strain M93 (MTZ resistant); experiment: Growth curve method / MIC, resistant strain M93; conditions: Helicobacter pylori, strain M93, MTZ resistant
Method: as §1, §2, §3, §4, §5, §7

[6] = strain N6, wild-type, read-out: MIC (Table 7)

Structure (SMILES)	MIC [1, 6] [µM]	MIC ([1]; strain N6, read-out: MIC)	MIC ([2]; read-out: MIC)	MIC ([2]; read-out: MIC (Table 7)) [µM]	MIC ([3]; read-out: MIC)	MIC ([3]; read-out: MIC (Table 7)) [µM]	MIC ([4]; P12, read-out: MIC (Table 7)) [µM]	MIC ([4]; strain P12, read-out: MIC)	MIC ([5]; read-out: MIC)	MIC ([5]; read-out: MIC (Table 7)) [µM]
Cc1ncc(CO)c(C=O)c1O.Cl [PI-h, pyridoxal hydrochloride]	2.5	509 µg/mL and 2500 µM	255 µg/mL and 1250 µM	1.25	509 µg/mL and 2500 µM	2.5	2.5	509 µg/mL and 2500 µM	255 µg/mL and 1250 µM	1.25
Cc1ncc(COP(=O)(O)O)c(C=O)c1O [PLP, pyridoxal 5′-phosphate]	2.5 (≈ 0.618 µg/mL)	618 µg/mL and 2500 µM	309 µg/mL and 1250 µM	1.25	309 to 618 µg/mL	1.25 to 2.5	2.5 (≈ 0.618 µg/mL)	618 µg/mL and 2500 µM	309 µg/mL and 1250 µM	1.25 (≈ 0.309 µg/mL)
